Experimental data: ChEMBL document CHEMBL1140140, “4-[3-(4-cyclopropanecarbonylpiperazine-1-carbonyl)-4-fluorobenzyl]-2H-phthalazin-1-one: a novel bioavailable inhibitor of poly(ADP-ribose) polymerase-1” (J Med Chem, 2008)
Values after ≈ are worked out from the molar mass of the structure shown. Active and inactive are the calls of the source. The calls are words filed in the database; no cut-off is given here.

Legend:
[1] = tested on: HeLa; assay: Potentiation factor, ratio of IC50 for methyl methanesulfonate to IC50 for methyl methanesulfonate with 200 nM drug for inhibition of human HeLa B cells
[2] = molecular target: Poly [ADP-ribose] polymerase 1 (Homo sapiens, UniProt P09874)
[3] = Plasma concentration in mouse at 10 mg/kg, po after 30 mins; type: ADME, organism-based; set-up: dose 10 mg/kg, route oral
[4] = Plasma concentration in mouse at 10 mg/kg, po after 60 mins; type: ADME, organism-based; set-up: dose 10 mg/kg, route oral
[5] = Solubility of compound in 0.1 M phosphate buffer after 24 hrs by HPLC-UV method; type: physicochemical
[6] = species: Homo sapiens; assay: Cytotoxicity against BRCA1-deficient human […] cells upto 4 uM after 7 to 14 days by clonogenic assay; type: functional, cell-based
[7] = Half life in dog at 2.5 mg/kg, iv and 10 mg/kg, po; type: ADME, organism-based, Canis lupus familiaris; conditions: in vivo
[8] = Oral bioavailability in dog at 10 mg/kg, po; type: ADME, organism-based, Canis lupus familiaris; conditions: in vivo
[9] = tested on: HCC1937; assay: Cytotoxicity against BRCA1-deficient human HCC1937 cells upto 4 uM after 7 to 14 days by clonogenic assay; type: functional, cell-based
[10] = Volume of distribution in dog at 2.5 mg/kg, iv and 10 mg/kg, po; type: ADME, organism-based, Canis lupus familiaris; conditions: in vivo
[11] = Oral bioavailability in rat at 15 mg/kg, po; type: ADME, organism-based; conditions: in vivo
[12] = tested on: Rattus norvegicus; assay: AUC (0 to infinity) in rat at 15 mg/kg, iv and po; type: ADME, organism-based, Plasma; set-up: dose 15 mg/kg, route oral; conditions: in vivo
[13] = Clearance in dog at 2.5 mg/kg, iv and 10 mg/kg, po; type: ADME, organism-based, Canis lupus familiaris; conditions: in vivo
[14] = tested on: Rattus norvegicus; assay: Volume of distribution in rat at 15 mg/kg, iv and po; type: ADME, organism-based; set-up: dose 15 mg/kg, route oral; conditions: in vivo
[15] = tested on: Canis familiaris; assay: AUC (0 to infinity) in dog at 2.5 mg/kg, iv and 10 mg/kg, po; type: ADME, organism-based, Canis lupus familiaris, Plasma; conditions: in vivo
[16] = Half life in rat at 15 mg/kg, iv and po; type: ADME, organism-based; set-up: dose 15 mg/kg, route oral; conditions: in vivo
[17] = tested on: SW-620; assay: Potentiation of methyl methanesulfonate-induced growth inhibition of human SW620 cells after 4 days by sulforhodamine B assay; type: functional, cell-based
[18] = tested on: Mus musculus; assay: Toxicity in human SW620 cells xenografted mouse assessed as maximum mean body weight loss after 3 days; type: organism-based, SW-620; conditions: in vivo, 72 h
[19] = tested on: SW-620; assay: Antitumor activity in human SW620 cells xenografted mouse assessed as days to double the relative tumor volume at 50 mg/kg, po once daily for 5 consecutive days; type: functional

Chain of Poly [ADP-ribose] polymerase 1 (P09874 whole entry): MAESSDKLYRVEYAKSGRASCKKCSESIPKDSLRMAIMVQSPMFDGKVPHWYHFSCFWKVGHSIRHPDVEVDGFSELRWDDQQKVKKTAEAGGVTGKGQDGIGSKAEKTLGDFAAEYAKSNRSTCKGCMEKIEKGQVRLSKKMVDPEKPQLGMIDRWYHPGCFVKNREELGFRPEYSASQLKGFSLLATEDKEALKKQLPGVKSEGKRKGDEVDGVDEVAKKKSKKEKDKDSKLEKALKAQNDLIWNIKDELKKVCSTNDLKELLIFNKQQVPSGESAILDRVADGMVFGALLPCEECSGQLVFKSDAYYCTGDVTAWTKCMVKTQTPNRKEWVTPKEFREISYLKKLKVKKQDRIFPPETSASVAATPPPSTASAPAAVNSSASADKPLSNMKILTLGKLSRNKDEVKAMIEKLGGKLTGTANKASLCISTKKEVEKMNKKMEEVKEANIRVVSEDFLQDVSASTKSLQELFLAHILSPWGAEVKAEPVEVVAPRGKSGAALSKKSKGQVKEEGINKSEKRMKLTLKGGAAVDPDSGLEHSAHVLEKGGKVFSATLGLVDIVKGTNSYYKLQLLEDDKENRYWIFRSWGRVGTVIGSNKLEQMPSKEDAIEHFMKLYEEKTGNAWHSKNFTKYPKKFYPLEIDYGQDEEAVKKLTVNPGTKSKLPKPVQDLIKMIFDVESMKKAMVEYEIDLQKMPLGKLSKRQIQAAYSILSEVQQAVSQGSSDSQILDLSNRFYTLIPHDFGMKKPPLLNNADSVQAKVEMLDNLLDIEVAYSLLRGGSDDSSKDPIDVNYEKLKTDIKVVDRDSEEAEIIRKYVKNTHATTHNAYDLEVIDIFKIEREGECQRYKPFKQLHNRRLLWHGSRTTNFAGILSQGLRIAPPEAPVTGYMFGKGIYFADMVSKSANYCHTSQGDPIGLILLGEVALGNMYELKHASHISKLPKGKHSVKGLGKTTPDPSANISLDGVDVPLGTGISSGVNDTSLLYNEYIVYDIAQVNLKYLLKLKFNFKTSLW

Compound	PF50 [1]	IC50 [2] [nM]	other results
O=C(c1cc(Cc2n[nH]c(=O)c3ccccc23)ccc1F)N1CCN(CCO)CC1	3.3	12	
O=C(c1cc(Cc2n[nH]c(=O)c3ccccc23)ccc1F)N1CCN(C(=O)C2CCCC2)CC1	11.8	2	
CCCN1CCN(C(=O)c2cc(Cc3n[nH]c(=O)c4ccccc34)ccc2F)CC1	7.3	6	
O=C(c1cc(Cc2n[nH]c(=O)c3ccccc23)ccc1F)N1CCN(C(=O)N2CCOCC2)CC1	8.4		
O=C(c1cc(Cc2n[nH]c(=O)c3ccccc23)ccc1F)N1CCCNCC1	12.6		
CC(=O)N1CCN(C(=O)c2cc(Cc3n[nH]c(=O)c4ccccc34)ccc2F)CC1	7.97	6	
O=C(c1cccc(Cc2n[nH]c(=O)c3ccccc23)c1)N1CCN(c2ccccn2)CC1	24.3	10	
O=C(c1cc(Cc2n[nH]c(=O)c3ccccc23)ccc1F)N1CCN(c2ccccn2)CC1	>40	2	
O=C(c1cccc(Cc2n[nH]c(=O)c3ccccc23)c1)N1CCN(CCO)CC1	1.8	39	
O=C(c1cc(Cc2n[nH]c(=O)c3ccccc23)ccc1F)N1CCN(C(=O)C2CCOC2)CC1 (configuration not stated)	29.8	2	concentration at 0.5 h [3]: 160 ng/mL; concentration at 1 h [4]: 150 ng/mL
O=C(c1cc(Cc2n[nH]c(=O)c3ccccc23)ccc1F)N1CCN(C(=O)C2CCCO2)CC1 (configuration not stated)	39.4		solubility at 24 h [5]: 980 µg/mL (≈ 2110 µM)
CCS(=O)(=O)N1CCN(C(=O)c2cccc(Cc3n[nH]c(=O)c4ccccc34)c2)CC1	4.6	12	
O=C(c1cc(Cc2n[nH]c(=O)c3ccccc23)ccc1F)N1CCCN(C(=O)N2CCOCC2)CC1	2.5	8	
O=C(c1cc(Cc2n[nH]c(=O)c3ccccc23)ccc1F)N1CCCN(CCO)CC1	18		
O=C(c1cc(Cc2n[nH]c(=O)c3ccccc23)ccc1F)N1CCN(c2ccccc2)CC1	5.2		concentration at 0.5 h [3]: 700 ng/mL; concentration at 1 h [4]: 310 ng/mL
O=C(c1ccccc1)N1CCN(C(=O)c2cccc(Cc3n[nH]c(=O)c4ccccc34)c2)CC1	7.2	11	
CCCCN1CCN(C(=O)c2cc(Cc3n[nH]c(=O)c4ccccc34)ccc2F)CC1	6.4	5	
O=C(c1cccc(Cc2n[nH]c(=O)c3ccccc23)c1)N1CCN(c2ccccc2)CC1		51	
O=C(c1ccccc1)N1CCN(C(=O)c2cc(Cc3n[nH]c(=O)c4ccccc34)ccc2F)CC1	8.2	6	
CCS(=O)(=O)N1CCCN(C(=O)c2cccc(Cc3n[nH]c(=O)c4ccccc34)c2)CC1	1.4	23	

Compound	PF50 [1]	IC50 [2] [nM]	other results
O=C(c1cccc(Cc2n[nH]c(=O)c3ccccc23)c1)N1CCNCC1	3.7		
O=C(c1cc(Cc2n[nH]c(=O)c3ccccc23)ccc1F)N1CCNCC1	8.6	5	
O=C(c1cccc(Cc2n[nH]c(=O)c3ccccc23)c1)N1CCN(C(=O)N2CCOCC2)CC1	2.3	8	
O=C(c1cccc(Cc2n[nH]c(=O)c3ccccc23)c1)N1CCCN(Cc2ccccc2)CC1	2.2	18	
CCS(=O)(=O)N1CCN(C(=O)c2cc(Cc3n[nH]c(=O)c4ccccc34)ccc2F)CC1	4.9	8	
CCN1CCN(C(=O)c2cc(Cc3n[nH]c(=O)c4ccccc34)ccc2F)CC1	7.7	6	
O=C(c1cc(Cc2n[nH]c(=O)c3ccccc23)ccc1F)N1CCN(C(=O)C2CC2)CC1 [OLAPARIB]	25.8		Activity [6]: Active; half-life [7]: 170 min; bioavailability [8]: 100%; Activity [9]: Active; concentration at 0.5 h [3]: 230 ng/mL; Vd [10]: 1.3 L/kg; bioavailability [11]: 100%; AUC [12]: 304 µg/min/mL; concentration at 1 h [4]: 590 ng/mL; clearance [13]: 5.4 mL/min/kg; Vd [14]: 1.18 L/kg; AUC [15]: 511 µg/min/mL; half-life [16]: 53 min; Activity [17]: Dose-dependent effect
CCC(=O)N1CCN(C(=O)c2cc(Cc3n[nH]c(=O)c4ccccc34)ccc2F)CC1	24.4	5	concentration at 0.5 h [3]: 670 ng/mL; bioavailability [11]: 40%; AUC [12]: 423 µg/min/mL; concentration at 1 h [4]: 300 ng/mL; Vd [14]: 0.91 L/kg; half-life [16]: 55 min
O=C(c1cc(Cc2n[nH]c(=O)c3ccccc23)ccc1F)N1CCN(C(=O)C2CCCCC2)CC1	11.1	15	
CC(=O)N1CCCN(C(=O)c2cc(Cc3n[nH]c(=O)c4ccccc34)ccc2F)CC1	3.7	12	
O=C(c1cccc(Cc2n[nH]c(=O)c3ccccc23)c1)N1CCCN(C(=O)N2CCOCC2)CC1	1.4	20	
O=C(c1cccc(Cc2n[nH]c(=O)c3ccccc23)c1)N1CCN(c2ncccn2)CC1	>40	2	concentration at 0.5 h [3]: 300 ng/mL; solubility at 24 h [5]: 1 µg/mL (≈ 2.34 µM); concentration at 1 h [4]: 140 ng/mL
O=C(c1cc(Cc2n[nH]c(=O)c3ccccc23)ccc1F)N1CCCN(C(=O)C2CC2)CC1	4.2	12	
CN1CCN(C(=O)c2cccc(Cc3n[nH]c(=O)c4ccccc34)c2)CC1	1.02	88	
CN1CCN(C(=O)c2cc(Cc3n[nH]c(=O)c4ccccc34)ccc2F)CC1	2.5	13	
Cn1nnc2c(C(N)=O)ncn2c1=O [TEMOZOLOMIDE]			Activity [18]: 6%; Time [19]: 44 days
O=C(c1cccc(Cc2n[nH]c(=O)c3ccccc23)c1)N1CCCN(CCO)CC1	5.4	18	
O=C(c1cc(Cc2n[nH]c(=O)c3ccccc23)ccc1F)N1CCN(CC2CC2)CC1	6.5		
O=C(c1cc(Cc2n[nH]c(=O)c3ccccc23)ccc1F)N1CCN(c2ncccn2)CC1	>40	3	
